# Activity calls are given as the source filed them. The rule behind the calls is not given here.
# Experiments:
# [1] = target: T1, Fibroblast growth factor receptor 1 (Homo sapiens, UniProt P11362); assay: Inhibition of FGFR1 (unknown origin) using Poly (Glu,Tyr) 4:1 as substrate incubated for 60 mins in presence of ATP by ELISA analysis
# Target sequence in this assay (P11362 whole entry): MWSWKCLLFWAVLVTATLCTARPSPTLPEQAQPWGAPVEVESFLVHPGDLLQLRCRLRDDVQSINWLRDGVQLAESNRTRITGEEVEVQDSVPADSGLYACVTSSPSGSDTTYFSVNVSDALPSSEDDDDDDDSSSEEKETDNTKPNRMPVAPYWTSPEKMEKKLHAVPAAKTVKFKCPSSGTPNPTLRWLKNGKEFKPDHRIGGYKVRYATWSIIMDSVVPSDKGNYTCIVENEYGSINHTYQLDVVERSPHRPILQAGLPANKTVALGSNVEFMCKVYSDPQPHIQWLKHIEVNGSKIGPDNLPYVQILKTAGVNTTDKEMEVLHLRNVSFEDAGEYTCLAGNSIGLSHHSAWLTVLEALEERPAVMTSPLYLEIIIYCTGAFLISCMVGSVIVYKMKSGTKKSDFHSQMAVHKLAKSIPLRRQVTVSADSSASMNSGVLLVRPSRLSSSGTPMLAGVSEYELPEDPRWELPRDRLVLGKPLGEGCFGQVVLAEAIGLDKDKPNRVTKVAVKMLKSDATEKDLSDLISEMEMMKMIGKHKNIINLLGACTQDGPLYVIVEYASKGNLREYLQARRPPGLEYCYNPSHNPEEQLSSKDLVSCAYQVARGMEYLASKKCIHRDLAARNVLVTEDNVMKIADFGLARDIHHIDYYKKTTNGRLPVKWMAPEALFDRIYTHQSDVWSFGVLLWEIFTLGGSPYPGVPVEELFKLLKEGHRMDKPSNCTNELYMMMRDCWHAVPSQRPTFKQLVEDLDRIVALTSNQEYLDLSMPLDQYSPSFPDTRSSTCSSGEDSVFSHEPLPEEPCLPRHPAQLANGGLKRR
# [2] = GSH reactivity in PBS buffer assessed as percentage peak area ratio incubated for 24 hrs by LC-MS/MS analysis; format: physicochemical
# [3] = Solubility of compound in PBS at pH 7.4 at 1 to 100 microg/ml by laser nephelometry analysis; format: physicochemical; settings: dose 1-100 µg/ml
# [4] = system: SNU-16; assay: Antiproliferative activity against human SNU-16 cells assessed as reduction in cell viability measured for 72 hrs; format: functional, cell-based; settings: SNU-16, 72 h
# [5] = Stability in rat whole blood assessed as parent compound remaining measured upto 5 hrs by LC-MS/MS analysis; format: ADME, tissue-based
# [6] = target: T1, Fibroblast growth factor receptor 1; settings: dose 100.0 nM, time 60.0 min
# Target sequence in this assay (P11362 22-822 limits assumed): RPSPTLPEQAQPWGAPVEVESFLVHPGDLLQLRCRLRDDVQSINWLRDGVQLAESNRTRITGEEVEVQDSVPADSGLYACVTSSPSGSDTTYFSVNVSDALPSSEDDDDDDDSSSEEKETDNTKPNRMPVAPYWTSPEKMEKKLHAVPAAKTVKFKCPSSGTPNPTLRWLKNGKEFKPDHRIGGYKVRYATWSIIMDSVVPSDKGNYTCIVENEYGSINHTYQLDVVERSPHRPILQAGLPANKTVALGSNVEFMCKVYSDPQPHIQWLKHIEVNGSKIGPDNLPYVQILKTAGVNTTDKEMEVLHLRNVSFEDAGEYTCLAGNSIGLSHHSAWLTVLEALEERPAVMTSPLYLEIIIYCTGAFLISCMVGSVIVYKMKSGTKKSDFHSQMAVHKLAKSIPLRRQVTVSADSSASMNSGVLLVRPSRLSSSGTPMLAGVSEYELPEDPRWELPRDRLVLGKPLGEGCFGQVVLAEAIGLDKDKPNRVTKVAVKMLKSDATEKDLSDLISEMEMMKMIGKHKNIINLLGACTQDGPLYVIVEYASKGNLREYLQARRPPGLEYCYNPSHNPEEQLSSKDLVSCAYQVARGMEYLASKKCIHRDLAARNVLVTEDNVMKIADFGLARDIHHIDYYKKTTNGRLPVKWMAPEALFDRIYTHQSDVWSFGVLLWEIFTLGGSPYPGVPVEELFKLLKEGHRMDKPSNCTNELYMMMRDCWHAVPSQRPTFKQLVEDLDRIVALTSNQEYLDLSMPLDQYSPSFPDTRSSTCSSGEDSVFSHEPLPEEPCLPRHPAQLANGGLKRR
# [7] = target: T1, Fibroblast growth factor receptor 1; settings: dose 10.0 nM, time 60.0 min
# Target sequence in this assay (P11362 22-822 limits assumed): as above
# [8] = target: T1, Fibroblast growth factor receptor 1; settings: dose 1.0 nM, time 60.0 min
# Target sequence in this assay (P11362 22-822 limits assumed): as above
# [9] = target: Fibroblast growth factor receptor (Homo sapiens) (UniProt P22607+P11362+P22455+P21802); assay: Inhibition of FGFR signalling in human SNU-16 assessed as inhibition of pErk phosphorylation at 0.1 nM incubated for 2 hrs by Western blot analysis; format: cell-based
# Sequence of Fibroblast growth factor receptor (Homo sapiens) (P11362 whole entry, looked up): as the sequence (P11362 whole entry) above
# Sequence of Fibroblast growth factor receptor (Homo sapiens) (P21802 whole entry, looked up): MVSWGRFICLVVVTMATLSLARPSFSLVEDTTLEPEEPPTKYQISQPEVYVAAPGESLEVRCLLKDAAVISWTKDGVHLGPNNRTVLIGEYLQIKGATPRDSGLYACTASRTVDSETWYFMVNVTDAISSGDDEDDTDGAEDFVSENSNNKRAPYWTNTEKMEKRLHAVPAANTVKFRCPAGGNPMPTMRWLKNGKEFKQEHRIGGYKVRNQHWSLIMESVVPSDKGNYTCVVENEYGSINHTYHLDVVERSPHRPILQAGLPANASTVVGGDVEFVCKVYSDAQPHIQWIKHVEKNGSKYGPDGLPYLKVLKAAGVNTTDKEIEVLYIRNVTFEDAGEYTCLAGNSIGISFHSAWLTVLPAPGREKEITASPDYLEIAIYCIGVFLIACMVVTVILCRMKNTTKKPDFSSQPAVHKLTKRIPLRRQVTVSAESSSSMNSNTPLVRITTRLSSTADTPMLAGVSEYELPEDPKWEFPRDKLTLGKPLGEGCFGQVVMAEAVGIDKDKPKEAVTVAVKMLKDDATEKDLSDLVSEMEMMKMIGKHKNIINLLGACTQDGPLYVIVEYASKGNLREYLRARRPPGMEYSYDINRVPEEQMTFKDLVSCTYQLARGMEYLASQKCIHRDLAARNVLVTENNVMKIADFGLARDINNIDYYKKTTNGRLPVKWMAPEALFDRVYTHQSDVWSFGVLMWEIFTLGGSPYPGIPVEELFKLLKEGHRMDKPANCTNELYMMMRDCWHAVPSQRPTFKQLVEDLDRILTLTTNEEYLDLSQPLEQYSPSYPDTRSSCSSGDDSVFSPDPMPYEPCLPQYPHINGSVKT
# Sequence of Fibroblast growth factor receptor (Homo sapiens) (P22455 whole entry, looked up): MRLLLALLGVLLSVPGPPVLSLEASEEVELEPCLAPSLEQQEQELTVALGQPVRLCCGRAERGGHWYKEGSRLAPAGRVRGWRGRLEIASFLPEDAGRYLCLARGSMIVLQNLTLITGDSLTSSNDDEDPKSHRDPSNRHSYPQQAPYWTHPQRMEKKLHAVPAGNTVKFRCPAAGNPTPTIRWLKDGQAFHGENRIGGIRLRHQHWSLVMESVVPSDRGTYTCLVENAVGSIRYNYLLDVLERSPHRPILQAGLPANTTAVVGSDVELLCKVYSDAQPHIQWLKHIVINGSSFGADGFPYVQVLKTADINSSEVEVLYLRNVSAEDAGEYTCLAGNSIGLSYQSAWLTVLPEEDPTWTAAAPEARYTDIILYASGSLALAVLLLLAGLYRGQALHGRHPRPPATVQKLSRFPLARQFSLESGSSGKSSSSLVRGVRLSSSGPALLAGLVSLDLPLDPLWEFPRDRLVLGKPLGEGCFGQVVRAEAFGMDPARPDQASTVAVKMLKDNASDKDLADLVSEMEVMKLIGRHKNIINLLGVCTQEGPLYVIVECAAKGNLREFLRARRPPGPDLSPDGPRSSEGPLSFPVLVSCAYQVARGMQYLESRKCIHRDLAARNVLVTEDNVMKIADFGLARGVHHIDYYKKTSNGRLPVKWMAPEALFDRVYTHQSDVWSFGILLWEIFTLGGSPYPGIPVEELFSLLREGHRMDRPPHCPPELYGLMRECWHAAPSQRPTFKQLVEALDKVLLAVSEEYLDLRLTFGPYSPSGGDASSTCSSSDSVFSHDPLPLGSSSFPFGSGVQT
# Sequence of Fibroblast growth factor receptor (Homo sapiens) (P22607 whole entry, looked up): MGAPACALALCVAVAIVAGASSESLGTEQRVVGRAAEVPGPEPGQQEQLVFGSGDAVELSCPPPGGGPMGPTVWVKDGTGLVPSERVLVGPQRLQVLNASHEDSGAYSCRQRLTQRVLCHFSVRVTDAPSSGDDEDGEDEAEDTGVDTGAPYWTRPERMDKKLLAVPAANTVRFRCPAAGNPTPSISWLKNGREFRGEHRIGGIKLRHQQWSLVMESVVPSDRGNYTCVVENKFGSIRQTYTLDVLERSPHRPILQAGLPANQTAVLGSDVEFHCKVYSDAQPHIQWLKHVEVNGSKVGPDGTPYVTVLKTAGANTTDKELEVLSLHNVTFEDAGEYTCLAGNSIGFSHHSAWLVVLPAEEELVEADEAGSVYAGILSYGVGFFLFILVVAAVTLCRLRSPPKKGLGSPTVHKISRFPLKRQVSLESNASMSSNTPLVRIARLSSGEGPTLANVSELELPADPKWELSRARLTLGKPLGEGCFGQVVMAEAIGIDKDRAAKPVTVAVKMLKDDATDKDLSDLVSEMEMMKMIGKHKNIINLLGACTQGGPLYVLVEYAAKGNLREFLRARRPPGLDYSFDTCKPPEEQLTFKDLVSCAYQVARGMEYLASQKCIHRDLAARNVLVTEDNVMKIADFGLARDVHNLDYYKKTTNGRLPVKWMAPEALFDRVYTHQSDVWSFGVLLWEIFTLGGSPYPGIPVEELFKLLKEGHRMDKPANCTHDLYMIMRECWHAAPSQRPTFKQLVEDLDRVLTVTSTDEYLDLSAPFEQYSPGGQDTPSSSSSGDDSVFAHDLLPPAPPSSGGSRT
# [10] = target: Fibroblast growth factor receptor 2 (Homo sapiens, UniProt P21802); assay: Inhibition of FGFR2 (unknown origin) using Poly (Glu,Tyr) 4:1 as substrate incubated for 60 mins in presence of ATP by ELISA analysis
# Sequence of Fibroblast growth factor receptor 2 (P21802 whole entry): as the sequence (P21802 whole entry, looked up) above
# [11] = Stability in rat whole blood assessed as parent compound remaining measured after 2 hrs by LC-MS/MS analysis; format: ADME, tissue-based; settings: read-out: Stability
# [12] = target: Fibroblast growth factor receptor 3 (Homo sapiens, UniProt P22607); assay: Inhibition of FGFR3 (unknown origin) using Poly (Glu,Tyr) 4:1 as substrate incubated for 60 mins in presence of ATP by ELISA analysis
# Sequence of Fibroblast growth factor receptor 3 (P22607 whole entry): as the sequence (P22607 whole entry, looked up) above
# [13] = target: Voltage-gated inwardly rectifying potassium channel KCNH2 (Homo sapiens, UniProt Q12809); assay: Inhibition of hERG expressed in CHO cells at -80 mV holding potential by automated patch clamp method; format: toxicity, cell-based
# [14] = target: Fibroblast growth factor receptor 4 (Homo sapiens, UniProt P22455); assay: Inhibition of FGFR4 (unknown origin) using Poly (Glu,Tyr) 4:1 as substrate incubated for 60 mins in presence of ATP by ELISA analysis
# Sequence of Fibroblast growth factor receptor 4 (P22455 whole entry): as the sequence (P22455 whole entry, looked up) above
# [15] = Solubility of compound in PBS at pH 7.4; format: physicochemical
# [16] = system: NCI-H1581; assay: Antiproliferative activity against human NCI-H1581 cells expressing FGFR1 assessed as reduction in cell viability measured after 72 hrs; format: functional, cell-based; settings: NCI-H1581, 72 h
# [17] = system: NCI-H716; assay: Antiproliferative activity against human NCI-H716 cells expressing FGFR2 assessed as reduction in cell viability measured after 72 hrs; format: functional, cell-based; settings: NCI-H716, 72 h
IC50 [1],solubility kinetic [3],IC50 [4],inhibition [6],Structure (SMILES),further results
122 nM,,,,CC/C=C/C(=O)N1CCCC(n2nc3c(=O)[nH]nc(N)c3c2-c2oc3ccc(C)cc3c2C)C1 (racemic),
6.7 nM,1 µg/mL,< 0.3 nM,,CC#CC(=O)N1CCC(n2nc3c(=O)[nH]nc(N)c3c2-c2oc3ccc(C)cc3c2C)CC1,Activity [2]: 87%; Stability [5]: Stable
6.5 nM,10 µg/mL,1.5 nM,,C=CC(=O)N1CCC(n2nc3c(=O)[nH]nc(N)c3c2-c2oc3cc(F)ccc3c2C)CC1,
,,3.1 nM,85.7%,C=CC(=O)N[C@H]1CC[C@H](n2nc3c(=O)[nH]nc(N)c3c2-c2oc3ccc(C)cc3c2C)CC1,inhibition [7]: 47.4%; inhibition [8]: 32.4%
101 nM,,8.9 nM,,C=CC(=O)N1CCC(n2nc3c(=O)[nH]nc(N)c3c2-c2oc3cc(OC)ccc3c2C)CC1,
,10 µg/mL,,,C=C(F)C(=O)N1CCC(n2nc3c(=O)[nH]nc(N)c3c2-c2oc3ccc(C)cc3c2C)CC1,
8 nM,10 µg/mL,< 0.05 nM,91.2%,C=CC(=O)N1CCC(n2nc3c(=O)[nH]nc(N)c3c2-c2oc3ccc(C)cc3c2C)CC1,inhibition [9]: Active; IC50 [10]: 4.4 nM; inhibition [7]: 78.2%; Activity [2]: 84%; remaining at 2 h [11]: > 40%; IC50 [12]: 18.7 nM; inhibition [8]: 14.2%; IC50 [13]: 1130 nM; IC50 [14]: 45.5 nM; Stability [5]: Stable
84.4 nM,,,44%,C=CC(=O)N1CCC(n2nc3c(=O)[nH]nc(N)c3c2-c2oc3cc(OC)cc(OC)c3c2C)CC1,
,50 µg/mL,,,CN(C)C/C=C/C(=O)Nc1cc2c(Nc3ccc(F)c(Cl)c3)ncnc2cc1O[C@H]1CCOC1 [AFATINIB],
,,,11%,C=CC(=O)N1CCCC(n2nc3c(=O)[nH]nc(N)c3c2-c2oc3cc(OC)ccc3c2C)C1 (racemic),
7.71 nM,1 µg/mL,< 0.3 nM,,CCC#CC(=O)N1CCC(n2nc3c(=O)[nH]nc(N)c3c2-c2oc3ccc(C)cc3c2C)CC1,
2.3 nM,10 µg/mL,< 0.3 nM,,C=CC(=O)N1CCC(n2nc3c(=O)[nH]nc(N)c3c2-c2oc3cc(C)ccc3c2C)CC1,
,10 µg/mL,2 nM,61.6%,C=CC(=O)N1CCC(Cn2nc3c(=O)[nH]nc(N)c3c2-c2oc3ccc(C)cc3c2C)CC1,inhibition [7]: 48.3%; inhibition [8]: 29.5%
,,,32%,C=CC(=O)N1CCCC(n2nc3c(=O)[nH]nc(N)c3c2-c2oc3cccc(OC)c3c2C)C1 (racemic),
67.7 nM,,,,C/C=C/C(=O)N1CCCC(n2nc3c(=O)[nH]nc(N)c3c2-c2oc3ccc(C)cc3c2C)C1 (racemic),
21.9 nM,,82.9 nM,,Cc1ccc2oc(-c3c4c(N)n[nH]c(=O)c4nn3C3CCCN(C(=O)C#CCO)C3)c(C)c2c1 (racemic),
111 nM,,< 0.3 nM,,C=CC(=O)N1CCC(n2nc3c(=O)[nH]nc(N)c3c2-c2oc3cccc(OC)c3c2C)CC1,

IC50 [1],solubility kinetic [3],IC50 [4],inhibition [6],Structure (SMILES),further results
,,,27%,C=CC(=O)N1CCC(n2nc3c(=O)[nH]nc(N)c3c2-c2oc3ccc(C(F)(F)F)cc3c2C)CC1,
27.3 nM,,35.2 nM,,CC#CC(=O)N1CCCC(n2nc3c(=O)[nH]nc(N)c3c2-c2oc3ccc(C)cc3c2C)C1 (racemic),
2.2 nM,,16.6 nM,,Cc1ccc2oc(-c3c4c(N)n[nH]c(=O)c4nn3C3CCN(C(=O)C#CCO)CC3)c(C)c2c1,
,,,44%,C=CC(=O)N1CCC(n2nc3c(=O)[nH]nc(N)c3c2-c2oc3ccc(OC)cc3c2C)CC1,
,,,31%,Cc1ccc2oc(-c3c4c(N)n[nH]c(=O)c4nn3C3CCCN(C(=O)CC#N)C3)c(C)c2c1 (racemic),
,,,37%,C/C=C(\C)C(=O)N1CCCC(n2nc3c(=O)[nH]nc(N)c3c2-c2oc3ccc(C)cc3c2C)C1 (racemic),
,1 µg/mL,,,C=CC(=O)Nc1ccc(-n2nc3c(=O)[nH]nc(N)c3c2-c2oc3ccc(C)cc3c2C)cc1,solubility [15]: 1 µg/mL
,,,40%,C=CC(=O)N1CCCC(n2nc3c(=O)[nH]nc(N)c3c2-c2oc3cc(OC)cc(OC)c3c2C)C1 (racemic),
6.4 nM,,< 0.3 nM,,C=CC(=O)N1CCCC(n2nc3c(=O)[nH]nc(N)c3c2-c2oc3ccc(Cl)cc3c2C)C1 (racemic),
2 nM,,9 nM,,C=CC(=O)N1CCC(n2nc3c(=O)[nH]nc(N)c3c2-c2oc3ccc(Cl)cc3c2C)CC1,
,,,36%,C=C(C)C(=O)N1CCCC(n2nc3c(=O)[nH]nc(N)c3c2-c2oc3ccc(C)cc3c2C)C1 (racemic),
25.4 nM,,36.4 nM,,CCC#CC(=O)N1CCCC(n2nc3c(=O)[nH]nc(N)c3c2-c2oc3ccc(C)cc3c2C)C1 (racemic),
3.9 nM,,15.8 nM,,C#CC(=O)N1CCCC(n2nc3c(=O)[nH]nc(N)c3c2-c2oc3ccc(C)cc3c2C)C1 (racemic),
117 nM,10 µg/mL,,,Cc1ccc2oc(-c3c4c(N)n[nH]c(=O)c4nn3C3CCCN(C(=O)/C=C/CN(C)C)C3)c(C)c2c1 (racemic),
,,3.7 nM,,COc1cc(CCc2cc(NC(=O)c3ccc(N4C[C@@H](C)N[C@@H](C)C4)cc3)n[nH]2)cc(OC)c1 [FEXAGRATINIB],IC50 [16]: 15.8 nM; IC50 [17]: 0.6 nM
0.9 nM,10 µg/mL,< 0.3 nM,,C#CC(=O)N1CCC(n2nc3c(=O)[nH]nc(N)c3c2-c2oc3ccc(C)cc3c2C)CC1,Activity [2]: 0%; Stability [5]: Unstable
,,,20%,C=CC(=O)N1CCC(n2nc3c(=O)[nH]nc(N)c3c2-c2oc3ccc(F)cc3c2C)CC1,

Structure (SMILES),IC50 [1],solubility kinetic [3],IC50 [4],inhibition [6],further results
C=CC(=O)N1CCC[C@@H](n2nc(-c3ccc(Oc4ccccc4)cc3)c3c(N)ncnc32)C1 [IBRUTINIB],,10 µg/mL,,,

# — ChEMBL document CHEMBL5247642, “Structural Optimization of Fibroblast Growth Factor Receptor Inhibitors for Treating Solid Tumors” (J Med Chem, 2023)
